Laboratory results reported in US10456553B2, “Device and methods for targeted tissue drug delivery” (NATIVE CARDIO, INC., priority 2012, dated 2019).

How the values were obtained:
[1] = parameters: species or system swine; conditions: in vivo
Protocol: Studies were conducted to determine the differences between intrapericardial (IPC) drug delivery versus intravenous (IV) drug delivery of the antiarrhythmic drug procainamide. In one study, using two groups of swine, investigators administered procainamide intravenously (n=6) or […] (n=7) using sequential intravenous doses of 2, 8, 16 mg/kg (cumulative was 2, 10, 26 mg/kg) or sequential pericardial doses of 0.5, 1, and 2 mg/kg (cumulative was 0.5, 1.5, 3.5 mg/kg). Each dose was re-suspended in 10 ml and administered at a rate of 1 mL/min. The pharmacokinetics of the two drug delivery methods was statistically significant. Pericardial delivery produced peak drug concentrations within the range of 250 to 900 ug/ml while the measurable level for plasma concentration was low (<1 ug/mL). […] It should be noted that the pericardial fluid concentration during intravenous delivery was 100 times less than that of intrapericardial delivery. The atrial electrophysiologic values were similar between both sets of delivery methods, indicating a lower direct dose can achieve similar therapeutic responses. The 3.5 mg/kg cumulative pericardial dose increased right atrial ERP by 22% from the baseline, while the 10 and 26 mg/kg cumulative intravenous doses prolonged atrial ERP by 24% and 18%, respectively. […]

[2] = tested on: ventricular electrophysiology; assay: Ventricular electrophysiology, heart rate and systemic blood pressure after pericardial or intravenous procainamide; type: in vivo; conditions: swine
Protocol: (§1) Studies were conducted to determine the differences between intrapericardial (IPC) drug delivery versus intravenous (IV) drug delivery of the antiarrhythmic drug procainamide. In one study, using two groups of swine, investigators administered procainamide intravenously (n=6) or […] (n=7) using sequential intravenous doses of 2, 8, 16 mg/kg (cumulative was 2, 10, 26 mg/kg) or sequential pericardial doses of 0.5, 1, and 2 mg/kg (cumulative was 0.5, 1.5, 3.5 mg/kg). Each dose was re-suspended in 10 ml and administered at a rate of 1 mL/min. The pharmacokinetics of the two drug delivery methods was statistically significant. Pericardial delivery produced peak drug concentrations within the range of 250 to 900 ug/ml while the measurable level for plasma concentration was low (<1 ug/mL). […] It should be noted that the pericardial fluid concentration during intravenous delivery was 100 times less than that of intrapericardial delivery. The atrial electrophysiologic values were similar between both sets of delivery methods, indicating a lower direct dose can achieve similar therapeutic responses. The 3.5 mg/kg cumulative pericardial dose increased right atrial ERP by 22% from the baseline, while the 10 and 26 mg/kg cumulative intravenous doses prolonged atrial ERP by 24% and 18%, respectively. In addition, the cumulative doses of 3.5 mg/kg (pericardial) and 26 mg/kg (intravenous) prevented atrial fibrillation induction in 71% and 83% of the animals, respectively.

atria = assay: Atrial electrophysiology (right atrial ERP) and atrial fibrillation induction after pericardial or intravenous procainamide; type: in vivo; conditions: swine
Protocol: as §1

- pericardial fluid concentration during intravenous delivery relative to intrapericardial delivery ([1]; swine): 100 times less
Structure (SMILES): CCN(CC)CCNC(=O)c1ccc(N)cc1 [procainamide]
- concentrations within the pericardial fluid ([1]; iv): equal to that of the plasma concentration
- atrial ventricular conduction times ([2]; 26 mg/kg intravenous dose): prolonged
- interventricular conduction (RV and LV activation) ([2]; 26 mg/kg intravenous dose): reduced
- effects on ventricular electrophysiology, heart rate, or systemic blood pressure ([2]; pericardial delivery): no significant effects
- animals in which atrial fibrillation induction was prevented (atria; 3.5 mg/kg cumulative dose, pericardial): 71%
- increase of right atrial ERP from the baseline (atria; 3.5 mg/kg cumulative pericardial dose): 22%
- prolongation of atrial ERP (atria; 10 mg/kg cumulative intravenous dose): 24%
- animals in which atrial fibrillation induction was prevented (atria; 26 mg/kg cumulative dose, intravenous): 83%
- prolongation of atrial ERP (atria; 26 mg/kg cumulative intravenous dose): 18%
